Measurements reported in patent US20220386606A1, “SPECIFICALLY SUBSTITUTED 3-PHENYL-5-SPIROCYCLOPENTYL-3-PYRROLIN-2-ONES AND THEIR USE AS HERBICIDES” (Bayer Aktiengesellschaft, priority 2019, published 2022).

Columns and labels:
ALOMY [1] = assay: Pre-emergence herbicidal action against ALOMY; assay type: in vivo, Alopecurus myosuroides; details: 320 g/ha, scored visually after 3 weeks vs untreated controls
Method in brief: (§1)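 Scoring is visual, 3 weeks post-application, on a 0 to 100% scale relative to untreated controls (100% = plants died). Treatment is pre-emergence: aqueous suspensions or emulsions applied to the covering soil at 600 to 800 L/ha with 0.2% wetting agent.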

AVEFA [2] = assay: Post-emergence herbicidal action against AVEFA; assay type: in vivo, Avena fatua; details: 80 g/ha, visual assessment after about 3 weeks
Method in brief: (§2)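 Visual scoring about 3 weeks after treatment gave % herbicidal action relative to untreated plants (0% = control-like, 100% = plants dead). Compounds, as WP or EC with 0.2% wetting agent, were sprayed onto green parts at 600–800 l/ha. Plants had reached the one-leaf stage, 2–3 weeks after sowing in sandy loam under greenhouse conditions.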

ECHCG [3] = assay: Post-emergence herbicidal action against ECHCG; assay type: in vivo, Echinochloa crus-galli; details: 80 g/ha, visual assessment about 3 weeks after treatment vs untreated controls
Method in brief: as §2

ABUTH [4] = assay: Pre-emergence herbicidal action against ABUTH; assay type: in vivo, Abutylon threophrasti; details: 320 g/ha
From the text: (§3) Seeds of monocotyledonous and dicotyledonous weed plants and crop plants are laid out in sandy loam soil in wood-fiber pots and covered with soil. The compounds of the invention, formulated in the form of wettable powders (WP) or as emulsion concentrates (EC), are then applied to the surface of the covering soil as aqueous suspension or emulsion at a water application rate equating to 600 to 800 L/ha with addition of 0.2% wetting agent.
(§4) After the treatment, the pots are placed in a greenhouse and kept under good growth conditions for the trial plants. The damage to the test plants is scored visually after a test period of 3 weeks by comparison with untreated controls (herbicidal activity in percent (%): 100% activity=the plants have died, 0% activity=like control plants).

POLCO = assay: Pre-emergence herbicidal action against POLCO; assay type: in vivo, Polygonum convolvulus; details: 320 g/ha
From the text: as §3, §4

SETVI [5] = assay: Post-emergence herbicidal action against SETVI; assay type: in vivo, Setaria viridis; details: 80 g/ha, visual assessment about 3 weeks after treatment vs untreated controls
Method in brief: as §2

DIGSA [6] = assay: Pre-emergence herbicidal action against DIGSA; assay type: in vivo, Digitaria sanguinalis; details: 320 g/ha, scored visually after 3 weeks vs untreated controls
Method in brief: as §1

ECHCG [7] = assay: Pre-emergence herbicidal action against ECHCG; assay type: in vivo, Echinochloa crus-galli; details: 320 g/ha, scored visually after 3 weeks vs untreated controls
Method in brief: as §1

MATIN = assay: Pre-emergence herbicidal action against MATIN; assay type: in vivo; details: 320 g/ha
Method in brief: as §1

VIOTR = assay: Pre-emergence herbicidal action against VIOTR; assay type: in vivo, Viola tricolor; details: 320 g/ha
Method in brief: as §1

AMARE = assay: Pre-emergence herbicidal action against AMARE; assay type: in vivo, Amaranthus retroflexus; details: 320 g/ha
Method in brief: as §1

LOLRI [8] = assay: Pre-emergence herbicidal action against LOLRI (Table 8, titled post-emergence at 320 g/ha); assay type: in vivo, Lolium rigidum; details: table stands in the pre-emergence section
Method in brief: as §1

ALOMY [9] = assay: Post-emergence herbicidal action against ALOMY; assay type: in vivo, Alopecurus myosuroides; details: 80 g/ha, visual assessment after about 3 weeks
Method in brief: as §2

SETVI [10] = assay: Pre-emergence herbicidal action against SETVI; assay type: in vivo, Setaria viridis; details: 320 g/ha, scored visually after 3 weeks vs untreated controls
Method in brief: as §1

LOLRI [11] = assay: Post-emergence herbicidal action against LOLRI; assay type: in vivo, Lolium rigidum; details: 80 g/ha, visual assessment about 3 weeks after treatment vs untreated controls
Method in brief: as §2

AVEFA [12] = assay: Pre-emergence herbicidal action against AVEFA; assay type: in vivo, Avena fatua; details: 320 g/ha, scored visually after 3 weeks vs untreated controls
Method in brief: as §1

ABUTH [13] = assay: Post-emergence herbicidal action against ABUTH; assay type: in vivo, Abutylon threophrasti; details: 80 g/ha, visual assessment about 3 weeks after treatment vs untreated controls
Method in brief: as §2

DIGSA [14] = assay: Post-emergence herbicidal action against DIGSA; assay type: in vivo, Digitaria sanguinalis; details: 80 g/ha, visual assessment about 3 weeks after treatment vs untreated controls
Method in brief: as §2

VERPE = assay: Pre-emergence herbicidal action against VERPE; assay type: in vivo, Veronica persica; details: 320 g/ha
Method in brief: as §1

SMILES	Pre-emergence action against ALOMY in % (ALOMY [1])	Post-emergence action against AVEFA in % (AVEFA [2])	Post-emergence action against ECHCG in % (ECHCG [3])	Pre-emergence action against ABUTH in % (ABUTH [4])	Pre-emergence action against POLCO in % (POLCO)	Post-emergence action against SETVI in % (SETVI [5])	Pre-emergence action against DIGSA in % (DIGSA [6])	Pre-emergence action against ECHCG in % (ECHCG [7])	Pre-emergence action against MATIN in % (MATIN)	Pre-emergence action against VIOTR in % (VIOTR)	Pre-emergence action against AMARE in % (AMARE)	Pre-emergence herbicidal action against LOLRI in % (LOLRI [8])	Post-emergence action against ALOMY in % (ALOMY [9])	Pre-emergence action against SETVI in % (SETVI [10])	Post-emergence action against LOLRI in % (LOLRI [11])	Pre-emergence action against AVEFA in % (AVEFA [12])	Post-emergence action against ABUTH in % (ABUTH [13])	Post-emergence action against DIGSA in % (DIGSA [14])	Pre-emergence action against VERPE in % (VERPE)
CC#Cc1cc(C)c(C2=C(O)C3(CCC(COCCOC)C3)NC2=O)c(Cl)c1 (centres unmarked) [Example I-50]	100%	80%	100%	100%	90%	100%	100%	100%	80%	100%	80%	100%	100%	100%	90%	100%			
CC#Cc1cc(C)c(C2=C(O)C3(CCC(COC)C3)NC2=O)c(Br)c1 (centres unmarked) [Example I-18]	100%	100%	100%	80%	100%	100%	100%	100%		100%	100%	100%	100%	100%	100%	100%	80%	100%	
CC#Cc1cc(Cl)c(C2=C(O)C3(CCC(COC)C3)NC2=O)c(OC)c1 (centres unmarked) [Example I-73]	100%	100%	100%	100%		100%	100%	100%	90%	100%	100%	100%	100%	100%	100%	100%		100%	90%
CC#Cc1cc(C)c(C2=C(OC(=O)OCC)C3(CCC(COCCOC)C3)NC2=O)c(Cl)c1 (centres unmarked) [Example P-75]	100%	90%	100%	80%	80%	100%	100%	100%	90%	100%	100%	100%	100%	100%	100%	100%		90%	90%
C#CCOCC1CCC2(C1)NC(=O)C(c1c(C)cc(C#CC)cc1Cl)=C2OC(=O)OCC (centres unmarked) [Example P-100]	100%	80%	100%	80%		100%	100%	100%	90%	100%	100%	100%	100%	100%	100%	90%		90%	90%
CC#Cc1cc(Cl)c(C2=C(OC(=O)OCC)C3(CCC(COC)C3)NC2=O)c(OC)c1 (centres unmarked) [Example P-98]	100%	90%	100%	90%		100%	100%	100%	90%	100%	100%	100%	100%	100%	100%	100%		100%	100%
CC#Cc1cc(C)c(C2=C(O)C3(CCC(COCC)C3)NC2=O)c(Cl)c1 (centres unmarked) [Example I-17]	100%	90%	100%	90%		100%	100%	100%	90%	100%	100%	100%	100%	100%	100%	100%		100%	90%
